Targets include Adenosine receptor A2a (Homo sapiens, UniProt P29274); Motilin receptor (Homo sapiens, UniProt O43193); Melanocortin receptor 3 (Homo sapiens, UniProt P41968).
Test [1] has as its target 3',5'-cyclic-AMP phosphodiesterase 4D (Homo sapiens, UniProt Q08499). Format: functional.
A further test concerns the target T1, Adenosine receptor A3 (Homo sapiens, UniProt P0DMS8).
T1 sequence (P0DMS8 whole entry): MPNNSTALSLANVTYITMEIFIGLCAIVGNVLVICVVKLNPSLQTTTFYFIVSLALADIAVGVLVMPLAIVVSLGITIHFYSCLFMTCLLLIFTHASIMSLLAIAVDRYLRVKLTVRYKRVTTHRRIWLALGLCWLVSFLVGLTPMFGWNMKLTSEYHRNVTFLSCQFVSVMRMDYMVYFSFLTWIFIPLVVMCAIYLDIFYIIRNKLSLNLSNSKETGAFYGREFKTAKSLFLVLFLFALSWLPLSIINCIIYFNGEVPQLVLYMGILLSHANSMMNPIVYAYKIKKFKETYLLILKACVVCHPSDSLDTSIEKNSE

Test [2] has as its target T2, Equilibrative nucleoside transporter 1 (Homo sapiens, UniProt Q99808).
T2 sequence (Q99808 whole entry): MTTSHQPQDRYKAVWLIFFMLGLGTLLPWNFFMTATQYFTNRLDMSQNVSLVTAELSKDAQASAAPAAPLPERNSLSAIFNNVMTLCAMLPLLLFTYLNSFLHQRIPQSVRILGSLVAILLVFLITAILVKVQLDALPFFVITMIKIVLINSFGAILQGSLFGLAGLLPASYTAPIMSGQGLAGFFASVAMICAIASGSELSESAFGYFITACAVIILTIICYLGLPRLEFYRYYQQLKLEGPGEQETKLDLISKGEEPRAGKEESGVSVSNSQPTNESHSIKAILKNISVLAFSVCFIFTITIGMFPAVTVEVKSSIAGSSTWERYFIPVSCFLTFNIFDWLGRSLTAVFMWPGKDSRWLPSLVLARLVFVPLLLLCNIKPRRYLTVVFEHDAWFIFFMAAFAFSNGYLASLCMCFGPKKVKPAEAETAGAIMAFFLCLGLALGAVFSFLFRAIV

Test [3] concerns the target T3, Cholecystokinin receptor type A (Homo sapiens, UniProt P32238).
T3 sequence (P32238 whole entry): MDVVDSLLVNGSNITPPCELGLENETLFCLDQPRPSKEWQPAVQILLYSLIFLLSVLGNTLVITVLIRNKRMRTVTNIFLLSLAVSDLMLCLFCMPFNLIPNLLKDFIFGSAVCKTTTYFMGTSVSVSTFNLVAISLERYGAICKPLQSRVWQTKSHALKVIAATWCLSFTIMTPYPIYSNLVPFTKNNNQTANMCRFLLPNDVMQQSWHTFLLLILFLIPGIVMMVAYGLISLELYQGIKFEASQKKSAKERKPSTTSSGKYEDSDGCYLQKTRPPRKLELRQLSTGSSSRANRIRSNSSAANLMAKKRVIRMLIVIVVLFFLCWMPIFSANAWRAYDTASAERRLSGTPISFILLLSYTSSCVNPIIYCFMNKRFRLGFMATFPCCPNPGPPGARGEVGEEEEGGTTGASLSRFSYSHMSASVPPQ

A further test deals with T4, Adenosine receptor A1 (Homo sapiens, UniProt P30542).
T4 sequence (P30542 whole entry): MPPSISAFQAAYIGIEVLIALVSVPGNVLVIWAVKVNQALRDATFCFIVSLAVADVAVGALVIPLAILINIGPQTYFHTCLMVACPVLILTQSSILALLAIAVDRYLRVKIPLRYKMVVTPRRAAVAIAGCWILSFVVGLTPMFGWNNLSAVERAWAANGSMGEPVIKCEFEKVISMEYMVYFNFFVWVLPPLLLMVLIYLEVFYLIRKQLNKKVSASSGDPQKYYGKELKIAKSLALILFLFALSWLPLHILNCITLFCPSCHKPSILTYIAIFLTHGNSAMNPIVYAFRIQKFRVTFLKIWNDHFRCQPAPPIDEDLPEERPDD

In test [4] the target is cGMP-inhibited 3',5'-cyclic phosphodiesterase 3A (Homo sapiens, UniProt Q14432). It counts as functional.
Test [5] deals with Gamma-aminobutyric acid receptor subunit alpha-1 (Rattus norvegicus, UniProt P62813).
The target in test [6] is T5, Type-1 angiotensin II receptor (Homo sapiens, UniProt P30556).
T5 sequence (P30556 whole entry): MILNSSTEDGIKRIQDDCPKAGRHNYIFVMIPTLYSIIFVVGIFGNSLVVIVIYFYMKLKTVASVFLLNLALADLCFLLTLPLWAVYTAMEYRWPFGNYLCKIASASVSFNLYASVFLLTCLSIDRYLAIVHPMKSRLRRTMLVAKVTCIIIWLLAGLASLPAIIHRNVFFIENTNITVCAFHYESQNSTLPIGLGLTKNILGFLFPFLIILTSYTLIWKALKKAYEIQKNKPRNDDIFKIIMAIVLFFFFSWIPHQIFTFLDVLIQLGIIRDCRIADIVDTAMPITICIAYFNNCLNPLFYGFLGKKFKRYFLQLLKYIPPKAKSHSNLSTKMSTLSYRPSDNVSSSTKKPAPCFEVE

Test [7] concerns the target Neuronal acetylcholine receptor subunit alpha-4 (Homo sapiens, UniProt P43681).

Bounds are passed on as bounds.
Further: assay procedure not described here.

Sequence of Adenosine receptor A2a (P29274 whole entry): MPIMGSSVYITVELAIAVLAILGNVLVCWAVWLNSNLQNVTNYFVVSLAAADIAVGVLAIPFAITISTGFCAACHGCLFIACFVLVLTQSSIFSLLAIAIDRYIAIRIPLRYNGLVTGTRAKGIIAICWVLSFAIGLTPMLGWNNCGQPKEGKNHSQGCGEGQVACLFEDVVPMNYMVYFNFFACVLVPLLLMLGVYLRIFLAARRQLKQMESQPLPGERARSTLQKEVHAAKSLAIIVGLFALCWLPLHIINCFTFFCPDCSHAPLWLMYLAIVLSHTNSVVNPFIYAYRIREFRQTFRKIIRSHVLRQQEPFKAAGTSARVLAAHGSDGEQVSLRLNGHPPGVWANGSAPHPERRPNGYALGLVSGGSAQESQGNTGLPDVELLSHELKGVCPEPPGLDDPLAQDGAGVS
Sequence of Motilin receptor (O43193 whole entry): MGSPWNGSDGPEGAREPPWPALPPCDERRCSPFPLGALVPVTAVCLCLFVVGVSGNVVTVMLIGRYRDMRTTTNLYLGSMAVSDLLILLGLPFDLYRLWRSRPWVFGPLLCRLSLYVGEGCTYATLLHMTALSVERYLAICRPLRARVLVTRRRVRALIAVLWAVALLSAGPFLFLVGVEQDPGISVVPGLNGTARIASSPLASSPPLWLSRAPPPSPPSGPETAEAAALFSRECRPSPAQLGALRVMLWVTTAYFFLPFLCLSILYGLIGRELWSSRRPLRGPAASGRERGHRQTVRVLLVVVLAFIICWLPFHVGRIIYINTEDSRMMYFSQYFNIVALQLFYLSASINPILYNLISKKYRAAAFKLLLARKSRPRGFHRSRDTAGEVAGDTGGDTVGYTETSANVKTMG
Sequence of Melanocortin receptor 3 (P41968 whole entry): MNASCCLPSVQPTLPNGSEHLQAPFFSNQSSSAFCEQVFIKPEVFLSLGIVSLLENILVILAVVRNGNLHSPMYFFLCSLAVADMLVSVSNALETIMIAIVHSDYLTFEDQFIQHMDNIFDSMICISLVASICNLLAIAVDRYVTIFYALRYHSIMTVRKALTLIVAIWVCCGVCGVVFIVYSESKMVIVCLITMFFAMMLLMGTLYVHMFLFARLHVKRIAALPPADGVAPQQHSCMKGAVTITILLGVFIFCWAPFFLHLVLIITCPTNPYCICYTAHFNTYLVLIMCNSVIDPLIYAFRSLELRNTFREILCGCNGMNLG
Sequence of Neuronal acetylcholine receptor subunit alpha-4 (P43681 whole entry): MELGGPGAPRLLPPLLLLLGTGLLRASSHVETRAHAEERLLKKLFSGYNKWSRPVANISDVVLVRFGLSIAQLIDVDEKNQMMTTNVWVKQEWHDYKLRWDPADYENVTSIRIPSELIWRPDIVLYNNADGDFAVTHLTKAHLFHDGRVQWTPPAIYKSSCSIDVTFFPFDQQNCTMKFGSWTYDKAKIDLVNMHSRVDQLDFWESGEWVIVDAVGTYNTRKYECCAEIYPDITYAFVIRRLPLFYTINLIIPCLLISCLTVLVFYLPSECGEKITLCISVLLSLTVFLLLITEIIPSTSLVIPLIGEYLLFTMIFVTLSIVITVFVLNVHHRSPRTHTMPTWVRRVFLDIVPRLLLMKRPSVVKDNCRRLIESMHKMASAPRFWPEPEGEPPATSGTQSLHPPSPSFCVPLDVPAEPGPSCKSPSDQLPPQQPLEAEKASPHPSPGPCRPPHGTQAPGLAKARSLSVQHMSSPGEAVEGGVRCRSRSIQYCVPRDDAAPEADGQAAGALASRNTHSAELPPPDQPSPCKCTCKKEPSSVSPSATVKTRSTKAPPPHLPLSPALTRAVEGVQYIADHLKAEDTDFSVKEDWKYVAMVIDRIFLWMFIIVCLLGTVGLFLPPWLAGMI
Sequence of 3',5'-cyclic-AMP phosphodiesterase 4D (Q08499 whole entry): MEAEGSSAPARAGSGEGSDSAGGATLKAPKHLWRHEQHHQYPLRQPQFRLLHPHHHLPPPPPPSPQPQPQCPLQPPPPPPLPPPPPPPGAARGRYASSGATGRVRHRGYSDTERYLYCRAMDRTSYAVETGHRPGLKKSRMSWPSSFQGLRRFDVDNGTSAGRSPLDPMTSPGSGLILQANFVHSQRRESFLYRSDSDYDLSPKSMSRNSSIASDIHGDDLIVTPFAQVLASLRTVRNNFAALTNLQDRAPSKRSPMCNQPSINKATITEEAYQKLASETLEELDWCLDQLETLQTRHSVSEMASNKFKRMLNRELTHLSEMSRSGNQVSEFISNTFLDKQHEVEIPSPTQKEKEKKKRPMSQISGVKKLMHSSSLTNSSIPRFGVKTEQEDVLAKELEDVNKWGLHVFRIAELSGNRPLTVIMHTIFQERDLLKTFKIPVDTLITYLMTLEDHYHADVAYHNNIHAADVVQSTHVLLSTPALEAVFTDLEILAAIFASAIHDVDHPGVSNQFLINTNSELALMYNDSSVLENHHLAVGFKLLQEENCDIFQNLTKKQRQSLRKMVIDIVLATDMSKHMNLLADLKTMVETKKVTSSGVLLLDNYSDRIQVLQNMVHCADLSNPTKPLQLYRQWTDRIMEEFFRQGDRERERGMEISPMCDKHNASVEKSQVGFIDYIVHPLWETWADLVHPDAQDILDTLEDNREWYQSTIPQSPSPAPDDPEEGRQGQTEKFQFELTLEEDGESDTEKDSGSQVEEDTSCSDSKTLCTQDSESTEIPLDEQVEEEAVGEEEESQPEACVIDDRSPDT
Sequence of cGMP-inhibited 3',5'-cyclic phosphodiesterase 3A (Q14432 whole entry): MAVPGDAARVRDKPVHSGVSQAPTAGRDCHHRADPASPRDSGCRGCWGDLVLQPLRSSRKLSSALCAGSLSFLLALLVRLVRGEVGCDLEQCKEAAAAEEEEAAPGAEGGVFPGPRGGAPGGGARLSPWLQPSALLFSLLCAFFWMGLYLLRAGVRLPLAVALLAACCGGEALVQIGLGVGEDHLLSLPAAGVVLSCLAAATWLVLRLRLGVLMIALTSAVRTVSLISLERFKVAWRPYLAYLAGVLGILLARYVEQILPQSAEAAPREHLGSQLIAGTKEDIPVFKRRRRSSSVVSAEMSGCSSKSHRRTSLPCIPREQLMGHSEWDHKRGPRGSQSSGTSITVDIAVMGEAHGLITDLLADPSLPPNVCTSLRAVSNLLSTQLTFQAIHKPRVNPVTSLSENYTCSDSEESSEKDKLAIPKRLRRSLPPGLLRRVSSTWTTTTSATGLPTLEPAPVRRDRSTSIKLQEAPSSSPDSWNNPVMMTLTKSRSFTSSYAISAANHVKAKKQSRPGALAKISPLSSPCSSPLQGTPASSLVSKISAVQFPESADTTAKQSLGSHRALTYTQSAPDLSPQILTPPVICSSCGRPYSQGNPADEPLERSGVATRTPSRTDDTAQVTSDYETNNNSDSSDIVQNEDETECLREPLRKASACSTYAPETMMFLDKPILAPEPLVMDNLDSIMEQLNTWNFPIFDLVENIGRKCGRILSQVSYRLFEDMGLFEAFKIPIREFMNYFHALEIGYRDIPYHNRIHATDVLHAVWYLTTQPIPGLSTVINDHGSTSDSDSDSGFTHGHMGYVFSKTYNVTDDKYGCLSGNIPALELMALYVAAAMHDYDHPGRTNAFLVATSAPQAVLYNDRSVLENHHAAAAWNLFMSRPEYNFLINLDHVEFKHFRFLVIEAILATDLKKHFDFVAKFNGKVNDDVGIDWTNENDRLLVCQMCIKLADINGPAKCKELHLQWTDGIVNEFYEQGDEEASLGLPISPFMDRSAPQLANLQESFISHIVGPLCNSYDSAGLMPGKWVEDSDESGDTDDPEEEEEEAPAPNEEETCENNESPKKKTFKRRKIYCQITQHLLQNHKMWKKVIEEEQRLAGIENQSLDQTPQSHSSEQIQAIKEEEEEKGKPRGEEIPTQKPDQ
Sequence of Gamma-aminobutyric acid receptor subunit alpha-1 (P62813 whole entry): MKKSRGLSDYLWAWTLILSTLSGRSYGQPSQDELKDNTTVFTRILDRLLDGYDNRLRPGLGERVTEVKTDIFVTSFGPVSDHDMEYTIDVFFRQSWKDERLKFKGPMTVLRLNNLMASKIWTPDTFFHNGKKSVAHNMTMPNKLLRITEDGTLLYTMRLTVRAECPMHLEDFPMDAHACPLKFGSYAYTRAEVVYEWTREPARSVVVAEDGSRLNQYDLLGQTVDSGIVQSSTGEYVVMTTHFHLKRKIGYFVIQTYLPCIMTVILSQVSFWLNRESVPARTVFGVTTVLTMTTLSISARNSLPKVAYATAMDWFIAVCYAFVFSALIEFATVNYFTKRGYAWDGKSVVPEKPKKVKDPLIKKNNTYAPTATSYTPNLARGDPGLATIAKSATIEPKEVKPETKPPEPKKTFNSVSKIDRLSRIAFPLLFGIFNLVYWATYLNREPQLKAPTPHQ

For orientation: AC50 means the midpoint of the concentration-response curve, whichever way the signal moves. A higher AC50 goes with weaker potency. As to `C#C[C@]1(OC(C)=O)CC[C@H]2[C@@H]3CCC4=C/C(=N/O)CC[C@@H]4[C@H]3CC[C@@]21CC` [NORGESTIMATE], the AC50 in test [1] is 13 µM; on Adenosine receptor A3, 11 µM; in [2], > 30 µM; in test [3], > 30 µM; on Adenosine receptor A2a it was > 30 µM; on Adenosine receptor A1 it was > 30 µM. Also, the AC50 in test [4] was > 30 µM; in [5] it was > 30 µM; on Motilin receptor it was > 30 µM; in [6] it was 22 µM; at Melanocortin receptor 3, > 30 µM; in test [7], > 30 µM.
In the case of `[H]/N=C(/N)N/C(=N/[H])NCCc1ccccc1` [PHENFORMIN], the AC50 (in test [1]; at Adenosine receptor A3; in [2]; in [3]; at Adenosine receptor A2a; on Adenosine receptor A1) was > 30 µM throughout. In addition, the AC50 in test [4] was 22 µM; in test [5], > 10 µM; on Motilin receptor it was > 10 µM; in test [6], > 30 µM; at Melanocortin receptor 3, > 30 µM; in [7] it was > 10 µM.
As for `CCCCC1C(=O)N(c2ccccc2)N(c2ccccc2)C1=O` [PHENYLBUTAZONE], the AC50 (in test [1]; at Adenosine receptor A3; in [2]; in test [3]; on Adenosine receptor A2a; at Adenosine receptor A1) was > 30 µM in each case. Further, the concentration at half-maximal activity (AC50) in test [4] was > 30 µM; in test [5], > 10 µM; on Motilin receptor, > 30 µM; in test [6] it was > 30 µM; at Melanocortin receptor 3 it was > 30 µM; in test [7], > 30 µM.
For the compound `CC(N)C(O)c1ccccc1` (centres undefined) [PHENYLPROPANOLAMINE], the AC50 (in test [1]; on Adenosine receptor A3; in test [2]; in test [3]; at Adenosine receptor A2a; on Adenosine receptor A1) was > 30 µM each time. For the same compound, the half-maximal activity concentration (AC50) is > 30 µM in test [4]; > 10 µM in test [5]; > 10 µM on Motilin receptor; > 30 µM in [6]; > 30 µM on Melanocortin receptor 3; > 10 µM in test [7].
On to `Clc1ccc2c(N3CCN(CCCN4CCN(c5ccnc6cc(Cl)ccc56)CC4)CC3)ccnc2c1` [PIPERAQUINE], for which the half-maximal activity concentration (AC50) was 22 µM in test [1]; > 30 µM at Adenosine receptor A3; > 30 µM in test [2]; > 30 µM in test [3]; > 30 µM at Adenosine receptor A2a; > 30 µM at Adenosine receptor A1. For the same compound, the AC50 in [4] is 4.7 µM; in test [5], > 30 µM; on Motilin receptor it was > 30 µM; in [6], > 30 µM; at Melanocortin receptor 3 it was > 30 µM; in test [7], > 30 µM.
Take `CCCN[C@H]1CCc2nc(N)sc2C1` [PRAMIPEXOLE]: the AC50 (in test [1]; on Adenosine receptor A3; in [2]; in test [3]; at Adenosine receptor A2a; at Adenosine receptor A1) was > 30 µM in each case. For the same compound, the AC50 was > 30 µM in test [4]; > 10 µM in [5]; > 10 µM at Motilin receptor; > 30 µM in [6]; > 30 µM at Melanocortin receptor 3; > 10 µM in [7].
Take `Cc1noc(NS(=O)(=O)c2ccc(N)cc2)c1C` [SULFISOXAZOLE]: the AC50 in test [1] is > 30 µM; on Adenosine receptor A3, > 10 µM; in test [2], > 10 µM; in test [3], > 10 µM; on Adenosine receptor A2a, > 10 µM; at Adenosine receptor A1 it was > 10 µM. The AC50 in [4] is > 30 µM; in test [5], > 10 µM; at Motilin receptor, > 10 µM; in test [6] it was > 10 µM; on Melanocortin receptor 3, > 10 µM; in [7], > 10 µM.
Take `CCC(=O)O[C@H]1CC[C@H]2[C@@H]3CCC4=CC(=O)CC[C@]4(C)[C@H]3CC[C@]12C` [TESTOSTERONE PROPIONATE]: the AC50 was > 30 µM in [1]; > 10 µM on Adenosine receptor A3; > 10 µM in test [2]; > 10 µM in [3]; > 10 µM at Adenosine receptor A2a; > 10 µM at Adenosine receptor A1. The AC50 (in test [4]; in test [5]; at Motilin receptor; in [6]; on Melanocortin receptor 3; in [7]) was > 10 µM in each case.
With `Clc1ccc(C(Cn2ccnc2)OCc2ccsc2Cl)c(Cl)c1` (centres undefined) [TIOCONAZOLE], the AC50 in test [1] was 8.7 µM; on Adenosine receptor A3 it was 6.43 µM; in [2], > 30 µM; in test [3], > 30 µM; on Adenosine receptor A2a, > 30 µM; at Adenosine receptor A1, > 30 µM. Moreover, the AC50 in [4] was 17 µM; in test [5], > 30 µM; on Motilin receptor, > 30 µM; in [6], > 30 µM; on Melanocortin receptor 3, > 30 µM; in test [7], > 30 µM.
As to `CC(C)[C@H](N)C(=O)OCC(CO)OCn1cnc2c(=O)nc(N)[nH]c21` (some centres undefined) [VALGANCICLOVIR], the AC50 (in test [1]; at Adenosine receptor A3; in [2]; in test [3]; at Adenosine receptor A2a; on Adenosine receptor A1) was > 30 µM throughout. The AC50 is 7 µM in test [4]; > 30 µM in test [5]; > 30 µM on Motilin receptor; > 30 µM in [6]; > 30 µM at Melanocortin receptor 3; > 30 µM in test [7].
`CCCC(CCC)C(N)=O` [VALPROMIDE]: the half-maximal activity concentration (AC50) (in test [1]; on Adenosine receptor A3; in [2]; in test [3]; at Adenosine receptor A2a; on Adenosine receptor A1) was > 30 µM throughout. Moreover, the AC50 is > 30 µM in test [4]; > 10 µM in test [5]; > 10 µM at Motilin receptor; > 30 µM in [6]; > 30 µM at Melanocortin receptor 3; > 10 µM in test [7].
Regarding `CCOC(=O)C1=C[C@]2(CC)CCCN3CCc4c(n1c1ccccc41)[C@@H]32` [VINPOCETINE], the AC50 in test [1] was 8.8 µM; on Adenosine receptor A3, > 30 µM; in test [2], > 30 µM; in test [3], > 30 µM; at Adenosine receptor A2a, > 30 µM; at Adenosine receptor A1, 30 µM. Moreover, the AC50 (in test [4]; in test [5]; at Motilin receptor; in [6]; on Melanocortin receptor 3; in [7]) was > 30 µM throughout.

The values are drawn from ChEMBL document CHEMBL5291721, “A preclinical secondary pharmacology resource illuminates target-adverse drug reaction associations of marketed drugs” (Nat Commun, 2023).
